Article PMC9916658, “Design and Synthesis of New Quinazolin-4-one Derivatives with Negative mGlu7 Receptor Modulation Activity and Antipsychotic-Like Properties” (International Journal of Molecular Sciences, 2023)
Converted amounts (≈) assume the structure as drawn.

Legend:
mock T-REx 293 cell line = experiment: Off-target T-REx screening, forskolin-induced cAMP in untransfected cells; assay type: cell-based
Source text: Off-target (T-Rex screening)
Figure S5. Activity of compounds ALX-065 and ALX-171 in forskolin-induced cAMP accumulation in
untransfected cells of the T-REx 293 line. Similar to reference mGlu7 receptor ADX71743, no effects of the tested […]

[1] = Metabolic stability in mouse microsomal fraction; assay type: in vitro ADME; settings: for MML (metabolic stability liver microsome mouse): 1 µM, mouse microsomes 0.3 mg/mL, NADPH-regenerating system; for microsomal CLint at 1 µM: pH 7.4, mouse liver microsomes
Experimental: A metabolic stability assay was performed using a mouse microsomal fraction (phase I of metabolism) obtained from XenoTech (Kansas City, MO, USA). Compounds for metabolic stability testing were prepared as 10 mM stock solutions in DMSO. Compounds were incubated in triplicate at a 1 µM initial concentration with the microsomal fraction in the presence of NRS (NADPH-regenerating system, 1.3 mM). The final microsomal incubation (0.3 mg/mL) contained the components mentioned below in a pH 7.4 phosphate buffer. Control incubations were conducted without cofactors. The reference compound verapamil was used as a positive control. Incubations were carried out for 1 h on 96-well plates using a heated (+37 °C) orbital shaker (350 rpm). After incubation, the reaction was quenched through the addition of cold acetonitrile. The plate containing the samples was centrifuged at 2000 rpm for 15 min at 4 °C. The supernatants were analyzed using LC–MS.
The HPLC–MS consisted of a Dionex, Ultimate 3000 HPLC, and a Bruker Daltonics amaZon SL mass spectrometer (ESI-IT). The conditions were as follows: Column HPLC Ascentis Express C18 (5 cm × 2.1 mm, 2.7 µm) and an injection volume of 20 µL. An acetonitrile gradient was used with 0.1% formic acid in water at a constant flow rate of 1 mL/min. The programming was as follows: 0–0.5 min 5% ACN, 0.5–3.0 increase of 5–95%, 3.0–3.3 remaining at 95% ACN, 3.3–3.4 min decrease of 95–5% ACN, and 3.4–4.0 min 5% ACN. Samples were analyzed in a single-ion monitoring scan mode in positive mode. The conditions of the main parameters were as follows: a trap drive of 48.2, capillary exit voltage of 140.0 V, dry temperature (set) of 300 °C, nebulizer pressure (set) of 40.00 psi, dry gas flow (set) of 9.00 L/min HV capillary voltage of −4500 V, HV end-plate offset voltage of −500 V.
The percent loss of compounds was calculated through the normalization of the peak area against time 0, where the peak area at T0 was 100%. The elimination rate constant (h) was determined from the plot of ln (percent loss of compound) as a time function and equal to the minor value of the linear curve slope.

[2] = Kinetic solubility assay in HBSS buffer; assay type: physicochemical; settings: aqueous buffer, kinetic from dmso stock; Hanks-HEPES (HBSS buffer), pH 7.4; read-out: KS (kinetic solubility)
Experimental: The kinetic solubility assay was performed to determine the solubility of the compounds in the in vitro assay conditions. The assay investigated the solubility based on the precipitation process in the HBSS buffer. For the preparation of the assay buffer, the following compounds were dissolved in 800 mL purified water: • − 130 mM sodium chloride, NaCl (7.600 g); • − 5.4 mM potassium chloride, KCl (0.403 g); • − 0.8 mM magnesium sulfate, MgSO4 × 7H2O (0.197 g); • − 0.9 mM sodium phosphate monobasic, NaH2PO4 × 2H2O (0.140 g); • − 25 mM D-glucose (4.500 g); • − 20 mM HEPES sodium salt (5.210 g).
The buffer was adjusted to pH 7.4, and the following compound was added to the mixture: • − 1.8 mM calcium chloride, CaCl2 × 2H2O (0.265 g).
The total volume was adjusted to 1000 mL.
The investigated compounds were diluted (in triplicate) with the HBSS buffer at pH 7.4 to a final concentration of 500 μM.
The mixture was shaken on a filter plate at 500 rpm for 1.5 h at RT. After incubation, the filter plate was placed inside a vacuum manifold and filtrated. Samples were collected and the concentration of the filtrate was determined spectrophotometrically by measuring the UV–VIS absorption spectrum. Concentrations were calculated based on equations resulting from the calibration curves (in duplicates, 8 calibration points, dilution Factor ×2, 500 µM → 3.91 µM, including blank sample).

[3] = target: T1, recombinant human mGlu7 receptor (FAST-0154C) (Homo sapiens, UniProt Q14831); experiment: NAM mGlu7 activity on CHO-K1 cell line, cAMP HTRF (EuroscreenFast protocol); assay type: cell-based; settings: CHO-K1 human mGlu7, agonist L-AP4 at EC80; for % inhibition at maximal concentration: range 1 nM – 25 µM; for IC50: read-out: IC50 (CHO-K1, Figure S4)
T1 construct: host or cells: CHO-K1
T1 sequence (Q14831 35-915): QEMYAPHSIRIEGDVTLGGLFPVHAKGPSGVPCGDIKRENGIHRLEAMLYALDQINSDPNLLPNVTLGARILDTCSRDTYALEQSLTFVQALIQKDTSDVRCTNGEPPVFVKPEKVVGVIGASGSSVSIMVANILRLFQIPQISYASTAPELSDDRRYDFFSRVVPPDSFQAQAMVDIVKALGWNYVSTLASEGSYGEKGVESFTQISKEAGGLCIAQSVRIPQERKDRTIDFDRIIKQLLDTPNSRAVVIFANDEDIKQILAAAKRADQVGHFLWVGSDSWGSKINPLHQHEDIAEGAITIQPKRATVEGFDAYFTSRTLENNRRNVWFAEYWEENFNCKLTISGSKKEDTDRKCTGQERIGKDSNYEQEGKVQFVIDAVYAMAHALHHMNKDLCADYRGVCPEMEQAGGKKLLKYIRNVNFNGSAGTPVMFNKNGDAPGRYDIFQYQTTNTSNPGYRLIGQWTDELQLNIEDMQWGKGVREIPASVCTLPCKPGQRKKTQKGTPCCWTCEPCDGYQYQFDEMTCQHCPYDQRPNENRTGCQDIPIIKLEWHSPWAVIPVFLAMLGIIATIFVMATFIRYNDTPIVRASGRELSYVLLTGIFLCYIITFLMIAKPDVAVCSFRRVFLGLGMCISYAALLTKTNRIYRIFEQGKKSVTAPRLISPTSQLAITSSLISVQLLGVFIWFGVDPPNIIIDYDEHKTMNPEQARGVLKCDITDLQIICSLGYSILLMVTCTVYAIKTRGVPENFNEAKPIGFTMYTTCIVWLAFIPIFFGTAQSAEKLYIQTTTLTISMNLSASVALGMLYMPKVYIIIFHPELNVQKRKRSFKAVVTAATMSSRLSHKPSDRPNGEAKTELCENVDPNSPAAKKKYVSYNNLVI
Source text: with inducible expression of human mGlu7 receptor. […]
2.2. NAM mGlu7 receptor activity on CHO-K1 cell line according to EuroscreenFast protocol
ALX-065 and ALX-171 were testing for negative allosteric modulator (NAM) activity on alternative […]
mGlu7 cell line (recombinant human mGlu7 receptor (FAST-0154C) using cAMP HTRF functional assay) […]
by EuroscreenFast company according to the provided methodology.
Receptor Accession Cell line Reference Reference
Number agonist antagonist
Compounds were tested for NAM activity at the human mGlu7 receptor (FAST-0154C) in dose […]
response and in duplicates (range concentration: 1 nM – 25 µM) […]
cAMP HTRF assay for Gi coupled receptor
CHO-K1 cells expressing recombinant human mGlu7 receptor (FAST-0154C) grown prior to the test […]
inmedia without antibiotic are detached by gentle flushing with PBS-EDTA (5 mM EDTA), recovered […]
by centrifugation and resuspended in assay buffer (KRH: 5 mM KCl, 1.25 mM MgSO4, 124 mM NaCl, […]
25 mM HEPES, 13.3 mM Glucose, 1.25 mM KH2PO4, 1.45 mM CaCl2, 0.5 g/L BSA, supplemented with 1 […]
Dose response curves are performed in parallel with the reference compounds.
For antagonist/NAM test (96 well): 12 µl of cells are mixed with 6 µl of the test compound at increasing concentrations and then incubated 10 min. Thereafter 6 µl of the mix of the forskolin and reference agonist is added at a final concentration corresponding to the historical EC80. The plates are then incubated for 30 min at room temperature. After addition of the lysis buffer and 1 hour incubation, cAMP concentrations are estimated, according to the manufacturer specification, with the HTRF kit. […]

CYP3A4 = target: T2, CYP3A4 (Homo sapiens, UniProt P08684); experiment: CYP inhibition assay, recombinant enzyme, fluorescence; assay type: in vitro ADME; settings: test concentrations 1.1, 3.3 and 10 μM; read-out: Cytochrome P450 3A4 IC50
T2 construct: purchased BD Biosciences
T2 sequence (P08684 whole entry): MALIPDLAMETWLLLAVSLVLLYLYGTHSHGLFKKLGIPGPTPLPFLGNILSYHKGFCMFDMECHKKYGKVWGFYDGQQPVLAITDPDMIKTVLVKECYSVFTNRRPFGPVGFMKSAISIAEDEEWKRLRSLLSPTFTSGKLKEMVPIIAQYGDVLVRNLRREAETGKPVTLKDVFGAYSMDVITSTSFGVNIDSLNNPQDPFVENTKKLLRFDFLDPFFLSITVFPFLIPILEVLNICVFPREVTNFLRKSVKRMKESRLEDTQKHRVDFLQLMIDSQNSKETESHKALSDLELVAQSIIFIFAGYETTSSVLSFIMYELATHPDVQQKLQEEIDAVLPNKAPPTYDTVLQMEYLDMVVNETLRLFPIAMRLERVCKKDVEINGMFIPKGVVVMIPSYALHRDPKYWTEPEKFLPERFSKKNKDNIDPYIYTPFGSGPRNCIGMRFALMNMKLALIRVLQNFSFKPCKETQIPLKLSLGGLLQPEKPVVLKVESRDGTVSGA
Experimental: CYP inhibition was performed with the recombinant enzymes CYP1A2, CYP2B6, CYP2C9, CYP2C19, CYP2D6, and CYP3A4 obtained from BD Biosciences. Compounds for CYP inhibition testing were prepared as 10 mM stock solutions in DMSO. Isoform-specific substrates were incubated at 37 °C individually with P450 enzymes (Table 5) and a range of test compound concentrations (1.1, 3.3 and 10 μM) in duplicate. Each isoform was tested separately with one reference compound, a known positive control inhibitor. […] At the end of the incubation, product formation was monitored with fluorescence detection.

Compound | effect on forskolin-induced cAMP accumulation in untransfected cells (mock T-REx 293 cell line) | MML (metabolic stability liver microsome mouse) [1] [% remaining after 60 min] | solubility kinetic at 1.5 h [2] [µM] | % inhibition at maximal concentration [3] [%] | IC50 [3] [µM] | microsomal CLint at 1 µM [1] [µL/min/mg] | IC50 (CYP3A4) [µM]
CCc1nc2c(o1)CC(c1ccc(C)cc1C)CC2=O (stereo not shown) [ADX71743, reference compound] | no effects | 0.01 | 510 (≈ 137 µg/mL) | 62.42 | 0.43 |  | 
Cn1c(-c2ccccc2Cl)nc2ccc(-c3ccccc3)cc2c1=O [ALX-065, 2-(2-chlorophenyl)-3-methyl-6-phenylquinazolin-4(3H)-one] | no effects | 0.81 | 6.88 (≈ 2.39 µg/mL) | 99.62 | 3.74 | 268 | > 10
COc1cccc(-c2ccc3nc(-c4ccccc4Cl)n(C)c(=O)c3c2)c1OC [ALX-171, 2-(2-chlorophenyl)-6-(2,3-dimethoxyphenyl)-3-methylquinazolin-4(3H)-one] | no effects | 54.01 | 15.2 (≈ 6.2 µg/mL) | 105.21 | 5.6 | 34.2 | 3.3 to 10
